Test results published in patent US20070197593A1, “HYDROXYLAMINES AND DERIVATIVES FOR TREATMENT OF INFLAMMATORY CONDITIONS OF THE LIVER” (priority 2006, published 2007).

Assays:
Sprague Dawley rats = experiment: 28-day intravenous toxicity study in rats, liver histopathology (subacute hepatitis); assay type: in vivo
Method: Potential toxicity of Compound 1-HCl was evaluated by intravenous administration to Sprague Dawley rats for 28 days. This study was conducted in compliance with FDA Good Laboratory Practice Standards, 21 CFR 58 and in accordance with OECD Principles of Good Laboratory Practice.
One hundred twelve Sprague Dawley—HsD: SD rats were randomly divided into eight groups and treated with Compound 1 (“test article”) or vehicle, by intravenous administration via the lateral tail vein (slow bolus) (Table 1).
Animals in Groups 1-4 were subjected to a complete necropsy examination. Protocol-specified necropsy procedures included the recording of organ weights (adrenals, brain, hearts, kidneys, liver, testes, ovaries, spleen, thyroids, parathyroids), examination of the external body surface, examination of all orifices, and examination of the cranial, thoracic, and abdominal cavities and their contents. Post-fixation weights for the thyroids/parathyroids were recorded. The following protocol-specified tissues were collected at necropsy: animal identification (not evaluated), abnormalities (gross findings), adrenals, aorta, brain, cecum, cervix, colon, duodenum, epidiymides, esophagus, eye with optic nerve, femur with articular surface, heart, ileum, injection site, jejunum, kidneys, lacrimal glands (exorbital), larynx, liver, lung with mainstem bronchus, mammary gland, mandibular lymph nodes, mesenteric lymph nodes, ovaries, pancreas, pituitary, prostate, rectum, salivary glands, sciatic nerve, seminal vesicles, skeletal muscle (thigh), skin, spinal cord (cervical, midthoracis, lumbar), spleen, sternum with bone marrow, stomach, testes, thymus, thyroid/parathyroid, tongue, trachea, urinary bladder, uterus, and vagina.
On day 29, animals were weighed and sacrificed by CO2 inhalation. Protocol-specific tissues were preserved in 10% neutral buffered formalin (NBF). Protocol-requires tissues were embedded in paraffin, sectioned at approximately 5 microns, and processed to slides stained with hematoxylin and eosin (H&E). Histopathological evaluation was performed by a veterinary pathologist on all rats in Group 1 and Group 4 sacrificed on day 29, as well as for all early deaths. Livers for animals in Groups 2 and 3 were evaluated microscopically.

[1] = tested on: LPS induced TNF-alpha in monocytes; experiment: LPS induced TNF-alpha in monocytes (TNF alpha assay); assay type: cell-based; settings: Monocyte; compound 10 uM; 5 ng/mL LPS; read-out: Mean Percent Inhibition of TNF-alpha using 5 ng/mL LPS
Method: This test is a standard methodology for assessing the anti-inflammatory activity of compounds. Table 1 provides Percent Inhibition of LPS induced TNF-alpha in monocytes data for 18 hydroxylamine compounds of the invention. Compounds at different concentrations (0, 1, 2.5 and 10 uM) were incubated with 100 ul freshly collected heparinized blood for 10 minutes. […] Following incubation with LPS, PBS was added (800 uL) and samples were spun for 10 minutes at 1500 g. TNFα protein concentrations were measured using R&D Systems high sensitivity ELISA kit. THP-1 cells (0.5×10^6 cells/mL) were incubated with the compounds (0, 1, 2.5 and 10 uM) for 3 hrs in humidified chamber, 37° C., 5% CO2, 2% FBS in RPMI medium. Cells were induced with 25 ng/mL LPS for another 3 hrs. Cells were collected and spun at 1500 g for 10 minutes. Supernatant was collected and analyzed for TNFα.

CC1(C)CC(OC(=O)C2CC2)CC(C)(C)N1O.Cl [Compound 1, 1-Hydroxy-4-cyclopropanecarbonyloxy-2,2,6,6-tetramethylpiperidine hydrochloride]
Subacute hepatic inflammation (hepatitis) incidence, number of rats with minimal subacute hepatitis (Sprague Dawley rats; Group 2, 1.0 mg/kg/day i.v. 28 days, female rats (8 per group), vehicle Group 1 females 6/8): one | Subacute hepatic inflammation (hepatitis) incidence (Sprague Dawley rats; Group 2, 1.0 mg/kg/day i.v. 28 days, male rats (8 per group), vehicle Group 1 males 8/8): not present in any | Subacute hepatic inflammation (hepatitis) incidence (Sprague Dawley rats; Group 3, 2.5 mg/kg/day i.v. 28 days, female rats (8 per group), vehicle Group 1 females 6/8): not present in any | Subacute hepatic inflammation (hepatitis) incidence, number of rats with minimal subacute hepatitis (Sprague Dawley rats; Group 3, 2.5 mg/kg/day i.v. 28 days, male rats (8 per group), vehicle Group 1 males 8/8): one | Subacute hepatic inflammation (hepatitis) incidence (Sprague Dawley rats; Group 4, 7.5 mg/kg/day i.v. 28 days, female rats (8 per group), vehicle Group 1 females 6/8): not present in any | Subacute hepatic inflammation (hepatitis) incidence (Sprague Dawley rats; Group 4, 7.5 mg/kg/day i.v. 28 days, male rats (8 per group), vehicle Group 1 males 8/8): not present in any | Effect on background liver inflammation (idiopathic lesion) in treated rats (Sprague Dawley rats; Groups 2-4 (1.0-7.5 mg/kg/day i.v. 28 days), male and female rats): reduction in the incidence of this idiopathic lesion | inhibition at 10 µM [1]: 68 ± 6%
